Laboratory results from the NIST ThermoML archive (doi:10.1021/je700406p).

Assay: wn = mass fraction of the nth substance listed
Conditions: Liquid, Vibrating tube method

CC(C)(N)CO [2-amino-2-methylpropan-1-ol] + O
Conditions	mass density [kg/m3]
333.05 K, 14990 kPa, w1 = 0.4002	976.2
333.05 K, 15984 kPa, w1 = 0.4002	976.6
333.05 K, 16990 kPa, w1 = 0.4002	977
333.05 K, 18003 kPa, w1 = 0.4002	977.4
333.05 K, 18986 kPa, w1 = 0.4002	977.8
333.05 K, 19988 kPa, w1 = 0.4002	978.2
333.05 K, 21502 kPa, w1 = 0.4002	978.8
342.91 K, 1020 kPa, w1 = 0.2821	969
342.91 K, 2011 kPa, w1 = 0.2821	969.5
342.91 K, 3009 kPa, w1 = 0.2821	969.9
342.91 K, 4010 kPa, w1 = 0.2821	970.3
342.91 K, 4994 kPa, w1 = 0.2821	970.8
342.91 K, 5994 kPa, w1 = 0.2821	971.2
342.91 K, 7035 kPa, w1 = 0.2821	971.6
342.91 K, 7995 kPa, w1 = 0.2821	972
342.91 K, 8990 kPa, w1 = 0.2821	972.4
342.91 K, 9998 kPa, w1 = 0.2821	972.9
342.91 K, 10992 kPa, w1 = 0.2821	973.3
342.91 K, 11994 kPa, w1 = 0.2821	973.7
342.91 K, 12992 kPa, w1 = 0.2821	974.1
342.91 K, 13990 kPa, w1 = 0.2821	974.5
342.91 K, 14992 kPa, w1 = 0.2821	974.9
342.91 K, 15993 kPa, w1 = 0.2821	975.4
342.91 K, 16987 kPa, w1 = 0.2821	975.8
342.91 K, 17985 kPa, w1 = 0.2821	976.2
342.91 K, 18987 kPa, w1 = 0.2821	976.6
342.91 K, 19984 kPa, w1 = 0.2821	977
342.91 K, 20986 kPa, w1 = 0.2821	977.4
342.92 K, 509 kPa, w1 = 0.1997	971.6
342.92 K, 1001 kPa, w1 = 0.1997	971.8
342.92 K, 1008 kPa, w1 = 0.4976	953.4
342.92 K, 2000 kPa, w1 = 0.1997	972.2
342.92 K, 2004 kPa, w1 = 0.4976	953.8
342.92 K, 3000 kPa, w1 = 0.1997	972.7
342.92 K, 3006 kPa, w1 = 0.4976	954.3
342.92 K, 4000 kPa, w1 = 0.1997	973.1
342.92 K, 4000 kPa, w1 = 0.4976	954.8
342.92 K, 4997 kPa, w1 = 0.4976	955.3
342.92 K, 5000 kPa, w1 = 0.1997	973.6
342.92 K, 5996 kPa, w1 = 0.4976	955.7
342.92 K, 6000 kPa, w1 = 0.1997	974
342.92 K, 6996 kPa, w1 = 0.4976	956.2
342.92 K, 7001 kPa, w1 = 0.1997	974.4
342.92 K, 7993 kPa, w1 = 0.4976	956.7
342.92 K, 8000 kPa, w1 = 0.1997	974.8
342.92 K, 8988 kPa, w1 = 0.4976	957.2
342.92 K, 9009 kPa, w1 = 0.1997	975.2
342.92 K, 9983 kPa, w1 = 0.4976	957.6
342.92 K, 10002 kPa, w1 = 0.1997	975.6
342.92 K, 10990 kPa, w1 = 0.4976	958.1
342.92 K, 11001 kPa, w1 = 0.1997	976
342.92 K, 12000 kPa, w1 = 0.1997	976.5
342.92 K, 12003 kPa, w1 = 0.4976	958.5
342.92 K, 12992 kPa, w1 = 0.4976	958.9
342.92 K, 13000 kPa, w1 = 0.1997	976.9
342.92 K, 13996 kPa, w1 = 0.4976	959.4
342.92 K, 14000 kPa, w1 = 0.1997	977.3
342.92 K, 14988 kPa, w1 = 0.4976	959.9
342.92 K, 15002 kPa, w1 = 0.1997	977.7
342.92 K, 15995 kPa, w1 = 0.4976	960.3
342.92 K, 16002 kPa, w1 = 0.1997	978.2
342.92 K, 16984 kPa, w1 = 0.4976	960.8
342.92 K, 17001 kPa, w1 = 0.1997	978.6
342.92 K, 17995 kPa, w1 = 0.4976	961.2
342.92 K, 18002 kPa, w1 = 0.1997	979
342.92 K, 18994 kPa, w1 = 0.4976	961.7
342.92 K, 18999 kPa, w1 = 0.1997	979.2
342.92 K, 19993 kPa, w1 = 0.4976	962.1
342.92 K, 20029 kPa, w1 = 0.1997	979.8
342.92 K, 21004 kPa, w1 = 0.1997	980.2
342.92 K, 21021 kPa, w1 = 0.4976	962.5
342.92 K, 22004 kPa, w1 = 0.1997	980.6
342.92 K, 23001 kPa, w1 = 0.1997	981
342.92 K, 24005 kPa, w1 = 0.1997	981.5
342.93 K, 1004 kPa, w1 = 0.4002	962.4
342.93 K, 2006 kPa, w1 = 0.4002	962.8
342.93 K, 3009 kPa, w1 = 0.4002	963.3
342.93 K, 4013 kPa, w1 = 0.4002	963.7
342.93 K, 4998 kPa, w1 = 0.4002	964.2
342.93 K, 5995 kPa, w1 = 0.4002	964.6
342.93 K, 6996 kPa, w1 = 0.4002	965
342.93 K, 7995 kPa, w1 = 0.4002	965.5
342.93 K, 8994 kPa, w1 = 0.4002	965.9
342.93 K, 10004 kPa, w1 = 0.4002	966.3
342.93 K, 10993 kPa, w1 = 0.4002	966.8
342.93 K, 12000 kPa, w1 = 0.4002	967.2
342.93 K, 12990 kPa, w1 = 0.4002	967.6
342.93 K, 13993 kPa, w1 = 0.4002	968
342.93 K, 14985 kPa, w1 = 0.4002	968.5
342.93 K, 15999 kPa, w1 = 0.4002	968.9
342.93 K, 16987 kPa, w1 = 0.4002	969.3
342.93 K, 17994 kPa, w1 = 0.4002	969.8
342.93 K, 18984 kPa, w1 = 0.4002	970.2
342.93 K, 19987 kPa, w1 = 0.4002	970.6
342.93 K, 20996 kPa, w1 = 0.4002	971
352.84 K, 1007 kPa, w1 = 0.4002	954.4
352.84 K, 2012 kPa, w1 = 0.4002	954.9
352.84 K, 3000 kPa, w1 = 0.4002	955.3
352.84 K, 4011 kPa, w1 = 0.4002	955.8
352.84 K, 5007 kPa, w1 = 0.4002	956.3
352.84 K, 6009 kPa, w1 = 0.4002	956.7
352.84 K, 7008 kPa, w1 = 0.4002	957.2
352.84 K, 8014 kPa, w1 = 0.4002	957.6
352.84 K, 8988 kPa, w1 = 0.4002	958.1
352.84 K, 9986 kPa, w1 = 0.4002	958.5
352.84 K, 11001 kPa, w1 = 0.4002	959
352.84 K, 12004 kPa, w1 = 0.4002	959.5
352.84 K, 12991 kPa, w1 = 0.4002	959.8
352.84 K, 13986 kPa, w1 = 0.4002	960.3
352.84 K, 14991 kPa, w1 = 0.4002	960.8
352.84 K, 15997 kPa, w1 = 0.4002	961.2
352.84 K, 16988 kPa, w1 = 0.4002	961.6
352.84 K, 17995 kPa, w1 = 0.4002	962
352.84 K, 18987 kPa, w1 = 0.4002	962.5
352.84 K, 19995 kPa, w1 = 0.4002	962.9
352.84 K, 20986 kPa, w1 = 0.4002	963.3
352.85 K, 997 kPa, w1 = 0.2821	961.9
352.85 K, 2011 kPa, w1 = 0.2821	962.4
352.85 K, 2994 kPa, w1 = 0.2821	962.8
352.85 K, 4000 kPa, w1 = 0.2821	963.2
352.85 K, 5006 kPa, w1 = 0.2821	963.7
352.85 K, 6000 kPa, w1 = 0.2821	964.1
352.85 K, 6999 kPa, w1 = 0.2821	964.5
352.85 K, 7996 kPa, w1 = 0.2821	965
352.85 K, 8992 kPa, w1 = 0.2821	965.4
352.85 K, 9994 kPa, w1 = 0.2821	965.8
352.85 K, 10987 kPa, w1 = 0.2821	966.2
352.85 K, 12010 kPa, w1 = 0.2821	966.7
